# Measured values as given in article PMC10215302 (Antibiotics, 2023).
# Where two headings read alike, the source gives them in different places.
# Tests used:
# Assay in all cases: microbe, parasite or virus in culture
# Settings in all cases: Staphylococcus aureus
# S. aureus SA0077 = tested on: S. aureus SA0077
# S. aureus SA0085 = tested on: S. aureus SA0085
# S. aureus SA0422 = tested on: S. aureus SA0422
# S. aureus SA0736 = tested on: S. aureus SA0736
# S. aureus ATCC 29213 = tested on: S. aureus ATCC 29213
# [1] = SA0422, read-out: MIC values, Table S1: SA0422 VAN (derivative after 40 passages on vancomycin)
# [2] = SA0736, read-out: MIC values, Table S1: SA0736 VAN (derivative after 40 passages on vancomycin)
# [3] = ATCC29213, read-out: MIC values
# [4] = ATCC29213, read-out: MIC values, Table S1: ATCC 29213 DAP (derivative after 40 passages on daptomycin)
# [5] = ATCC29213, read-out: MIC values, Table S1: ATCC 29213 VAN (derivative after 40 passages on vancomycin)
# [6] = SA0085, read-out: MIC values, Table S1: SA0085 VAN (derivative after 40 passages on vancomycin)
# [7] = SA0422, read-out: MIC values, Table S1: SA0422 DAP (derivative after 40 passages on daptomycin)
# [8] = SA0077, read-out: MIC values, Table S1: SA0077 Abf (passages on antibiotic-free media)
# [9] = SA0077, read-out: MIC values, Table S1: SA0077 VAN (derivative after 40 passages on vancomycin)
# [10] = SA0736, read-out: MIC values, Table S1: SA0736 DAP-W (40 passages on daptomycin, white colonies)
smiles,measurement,setting,value
CC[C@H]1OC(=O)[C@H](C)[C@@H](O[C@H]2C[C@@](C)(OC)[C@@H](O)[C@H](C)O2)[C@H](C)[C@@H](O[C@@H]2O[C@H](C)C[C@H](N(C)C)[C@H]2O)[C@](C)(O)C[C@@H](C)C(=O)[C@H](C)[C@@H](O)[C@]1(C)O [Erythromycin],MIC,"S. aureus SA0077; SA0077, read-out: MIC values",> 128 µg/mL
same,MIC,"S. aureus SA0085; SA0085, read-out: MIC values",> 128 µg/mL
same,MIC,"S. aureus SA0422; SA0422, read-out: MIC values",0.125 µg/mL
same,MIC,S. aureus SA0422; [1],0.5 µg/mL
same,MIC,"S. aureus SA0736; SA0736, read-out: MIC values",0.125 µg/mL
same,MIC,S. aureus SA0736; [2],0.5 µg/mL
same,MIC,S. aureus ATCC 29213; [3],0.25 µg/mL
same,MIC,S. aureus ATCC 29213; [4],0.125 µg/mL
same,MIC,S. aureus ATCC 29213; [5],0.5 µg/mL
CC(=O)NC[C@H]1CN(c2ccc(N3CCOCC3)c(F)c2)C(=O)O1 [Linezolid],MIC,"S. aureus SA0077; SA0077, read-out: MIC values",1 µg/mL
same,MIC,"S. aureus SA0085; SA0085, read-out: MIC values",4 µg/mL
same,MIC,S. aureus SA0085; [6],1 µg/mL
same,MIC,"S. aureus SA0422; SA0422, read-out: MIC values",2 µg/mL
same,MIC,S. aureus SA0422; [7],1 µg/mL
same,MIC,"S. aureus SA0736; SA0736, read-out: MIC values",1 µg/mL
same,MIC,S. aureus SA0736; [2],2 µg/mL
same,MIC,S. aureus ATCC 29213; [3],2 µg/mL
same,MIC,S. aureus ATCC 29213; [4],1 µg/mL
C/C(=C\C(=O)OCCCCCCCCC(=O)O)C[C@@H]1OC[C@H](C[C@@H]2O[C@H]2[C@@H](C)[C@H](C)O)[C@@H](O)[C@H]1O [Mupirocin],MIC,"S. aureus SA0077; SA0077, read-out: MIC values",0.5 µg/mL
same,MIC,S. aureus SA0077; [8],1 µg/mL
same,MIC,S. aureus SA0077; [9],1 µg/mL
same,MIC,"S. aureus SA0085; SA0085, read-out: MIC values",1 µg/mL
same,MIC,"S. aureus SA0422; SA0422, read-out: MIC values",1 µg/mL
same,MIC,"S. aureus SA0736; SA0736, read-out: MIC values",1 µg/mL
same,MIC,S. aureus SA0736; [10],0.5 µg/mL
same,MIC,S. aureus ATCC 29213; [3],1 µg/mL
CN(C)[C@@H]1C(O)=C(C(N)=O)C(=O)[C@@]2(O)C(O)=C3C(=O)c4c(O)cccc4[C@@](C)(O)[C@H]3C[C@@H]12 [Tetracycline],MIC,"S. aureus SA0077; SA0077, read-out: MIC values",0.06 µg/mL
same,MIC,"S. aureus SA0085; SA0085, read-out: MIC values",32 µg/mL
same,MIC,"S. aureus SA0085; SA0085, read-out: MIC values, Table S1: SA0085 DAP (derivative after 40 passages on daptomycin)",16 µg/mL
same,MIC,S. aureus SA0085; [6],0.125 µg/mL
same,MIC,"S. aureus SA0422; SA0422, read-out: MIC values",0.06 µg/mL
same,MIC,S. aureus SA0422; [1],0.125 µg/mL
same,MIC,"S. aureus SA0736; SA0736, read-out: MIC values",16 µg/mL
same,MIC,S. aureus ATCC 29213; [3],0.125 µg/mL
same,MIC,S. aureus ATCC 29213; [4],0.06 µg/mL
same,MIC,S. aureus ATCC 29213; [5],0.5 µg/mL
O=C(O)c1cn(C2CC2)c2cc(N3CCNCC3)c(F)cc2c1=O [Ciprofloxacin],MIC,"S. aureus SA0077; SA0077, read-out: MIC values",16 µg/mL
same,MIC,S. aureus SA0077; [8],32 µg/mL
same,MIC,S. aureus SA0077; [9],64 µg/mL
same,MIC,"S. aureus SA0085; SA0085, read-out: MIC values",256 µg/mL
same,MIC,S. aureus SA0085; [6],32 µg/mL
same,MIC,"S. aureus SA0422; SA0422, read-out: MIC values",128 µg/mL
same,MIC,S. aureus SA0422; [7],32 µg/mL
same,MIC,S. aureus SA0422; [1],64 µg/mL
same,MIC,"S. aureus SA0736; SA0736, read-out: MIC values",128 µg/mL
same,MIC,S. aureus SA0736; [10],64 µg/mL
same,MIC,"S. aureus SA0736; SA0736, read-out: MIC values, Table S1: SA0736 DAP-Y (40 passages on daptomycin, yellow colonies)",32 µg/mL
same,MIC,S. aureus SA0736; [2],16 µg/mL
same,MIC,S. aureus ATCC 29213; [3],0.25 µg/mL
CNC(C)C1CCC(N)C(OC2C(N)CC(N)C(OC3OCC(C)(O)C(NC)C3O)C2O)O1 (stereo not shown) [Gentamicin],MIC,"S. aureus SA0077; SA0077, read-out: MIC values",> 128 µg/mL
same,MIC,"S. aureus SA0085; SA0085, read-out: MIC values",> 128 µg/mL
same,MIC,"S. aureus SA0422; SA0422, read-out: MIC values",> 128 µg/mL
same,MIC,"S. aureus SA0736; SA0736, read-out: MIC values",> 128 µg/mL
same,MIC,S. aureus ATCC 29213; [3],1 µg/mL
same,MIC,S. aureus ATCC 29213; [4],0.25 µg/mL
CO[C@H]1/C=C/O[C@@]2(C)Oc3c(C)c(O)c4c(O)c(c(/C=N/N5CCN(C)CC5)c(O)c4c3C2=O)NC(=O)/C(C)=C\C=C\[C@H](C)[C@H](O)[C@@H](C)[C@@H](O)[C@@H](C)[C@H](OC(C)=O)[C@@H]1C [Rifampicin],MIC,"S. aureus SA0077; SA0077, read-out: MIC values",0.004 µg/mL
same,MIC,"S. aureus SA0085; SA0085, read-out: MIC values",> 4 µg/mL
same,MIC,"S. aureus SA0422; SA0422, read-out: MIC values",0.004 µg/mL
same,MIC,"S. aureus SA0736; SA0736, read-out: MIC values",0.004 µg/mL
same,MIC,S. aureus SA0736; [2],0.016 µg/mL
same,MIC,S. aureus ATCC 29213; [3],0.004 µg/mL
